These results are taken from patent US20080261263A1, “In Vitro Evaluation of Micro-Organisms and Their Antimicrobial Agent Susceptibilities” (SYFT Technologies Limited, priority 2005, published 2008).

Values after ≈ are worked out from the molar mass of the structure shown.

Experiment [1] has as its system S. aureus. As to the kind of experiment: Predetermined minimal inhibitory concentration (MIC) for S. aureus. Type of experiment: cell-based. The note with it: Staphylococcus aureus.
Experiment [2] concerns S. aureus. As to the kind of experiment: Effect of antibiotic on S. aureus blood culture headspace VC production (SIFT-MS SIMscan). In kind it is cell-based, Staphylococcus aureus. Conditions: for Ammonia mean concentration / DMS mean concentration: S. aureus 6 h; for Aminoacetophenone mean concentration / Ethanol mean concentration / Formaldehyde mean concentration: S. aureus 22 h; for Inhibition of aminoacetophenone, ethanol and formaldehyde: S. aureus 22 hours; for Effect on production of ammonia and dimethylsulfide by S. aureus: six hours, flucloxacillin above and below its MIC. The source says: (§1) In one form of the method headspace atmospheres are introduced above conventional Biomerieux BacT/ALERT® aerobic or anaerobic blood cultures at a controlled rate into the flow tube precursor ion stream. The count rates of the resulting product ions are then to be determined by a “downstream” quadrupole and particle multiplier detector. Operating in full scan mode, the detector quadrupole is scanned over a predetermined m/z range to obtain a spectrum of product ions. In selected ion mode (SIMscan) the count rate of selected product ions is determined as the downstream […] is switched to and remains on selected m/zs.
(§2) Standard Biomerieux (Durham, N.C., USA) BacT/ALERT® SA, FA and SN disposable, plastic culture bottles containing 40 ml of culture medium were used throughout the experiments. 9 ml of healthy, uninfected human blood and 1 ml aliquots of antibiotics prepared in sterile water were added (in the relevant experiments) as required to each bottle prior to the addition of 1 ml of bacterial species suspended in sterile physiological saline.
(§3) SIFT-MS mass scan studies comparing 24 hour BacT/ALERT®SA blood culture headspace VCs with medium+blood controls identified a test panel of SIM VC analytes suitable for the five bacterial species tested. These bacterial metabolites included acetaldehyde, acetic acid, acetone, 2-aminoacetophenone, ammonia, dimethyldisulfide (DMDS), dimethylsulfide (DMS), formaldehyde, ethanol, hydrogen sulfide, indole, methanethiol, pentanols and propanol. […] absolute concentration measurements in parts per billion (ppb v/v) were integrated, averaged and recorded separately for acetaldehyde, acetic acid, ethanol, acetone, ammonia, hydrogen sulfide, DMS and DMDS during each 30 second SIMscan for each triplicate culture of the five test species after incubation in BacT/ALERT aerobic media. The results are recorded in Table 1 (below).
(§4) Approximately 10^3 CFU E. coli or S. aureus were inoculated into Biomerieux BacT/ALERT® SA bottles including 9 ml of fresh uninfected blood. Each bacterial species was incubated in triplicate either alone or in the presence of antibiotics above or below their predetermined minimal inhibitory concentrations (MIC).
(§5) Gentamicin was added to E. coli cultures at either 2 μg/ml or 0.05 μg/ml (MIC 0.25-1 μg/m)l. Flucloxacillin was added to S. aureus cultures at 2 μg/ml or 0.05 μg/ml (MIC 0.12-0.5 μg/ml).
(§6) The mean, minima and maxima integrated headspace analyte concentration measurements obtained from E. coli and S. aureus cultures are compared in Tables 8 and 9.

Experiment [3] has as its system E. coli. As to the kind of experiment: Predetermined minimal inhibitory concentration (MIC) for E. coli. In kind it is cell-based, Escherichia coli.
For experiment [4], the system named is E. coli. As to the kind of experiment: Effect of antibiotic on E. coli blood culture headspace VC production (SIFT-MS SIMscan). In kind it is cell-based, Escherichia coli.
Text: as §1, §2, §3, §4, §5, §6

Setting [5] is: flucloxacillin <MIC (0.05 μg/ml).
Setting [6] is: E. coli 6 h, gentamicin <MIC (0.05 μg/ml).
Setting [7] is: E. coli 6 h, gentamicin >MIC (2 μg/ml).
Setting [8] is: E. coli 22 h, gentamicin <MIC (0.05 μg/ml).
The mark [9] stands for this setting: E. coli 22 h, gentamicin >MIC (2 μg/ml).

For the compound `Cc1onc(-c2c(F)cccc2Cl)c1C(=O)N[C@@H]1C(=O)N2[C@@H]1SC(C)(C)[C@@H]2C(=O)O` [Flucloxacillin], in the experiment on S. aureus [1], the minimal inhibitory concentration (MIC) (in general, the smallest concentration in the dilution series that meets the test's criterion for growth inhibition) lay within 0.12 to 0.5 µg/mL (≈ 0.264 to 1.1 µM). In the experiment on S. aureus [2] (setting [5]), this compound registered an Ammonia mean concentration of 40 ppb, a DMS mean concentration of 30 ppb, an Aminoacetophenone mean concentration of 200 ppb and an Ethanol mean concentration of 7500 ppb. In addition, the Formaldehyde mean concentration in the experiment with S. aureus [2] (setting [5]) turned out to be 60 ppb. In the experiment with S. aureus [2] (flucloxacillin >MIC (2 μg/ml)), this compound returned an Ammonia mean concentration of 50 ppb, a DMS mean concentration of 10 ppb, an Aminoacetophenone mean concentration of 60 ppb and an Ethanol mean concentration of 1900 ppb. The compound further registered a Formaldehyde mean concentration in the experiment with S. aureus [2] (flucloxacillin >MIC (2 μg/ml)) of 20 ppb. Further, in the experiment on S. aureus [2] (flucloxacillin above its MIC, p<0.01), the “Inhibition of aminoacetophenone, ethanol and formaldehyde” value is reported as “notable”. Besides, the “Inhibition of aminoacetophenone, ethanol and formaldehyde” value in the experiment on S. aureus [2] (lower flucloxacillin concentration (below MIC)) is on record as “not inhibitory”. Also, the “Effect on production of ammonia and dimethylsulfide by S. aureus” value with S. aureus [2] is “significantly reduced”. The “Effect on production of ammonia and dimethylsulfide by S. aureus” value with S. aureus [2] (listed as flucloxacillin) was “inhibited to uninoculated, antibiotic-containing control levels”.

The compound Gentamicin had an MIC in the experiment on E. coli [3] of 0.25 to 1 µg/mL. Also, in the experiment on E. coli [4] (setting [6]), the “Hydrogen sulfide mean concentration” value came out at 0 ppb and the Pentanols mean concentration is listed as 120 ppb. Further, in the experiment on E. coli [4] (setting [7]), the “Hydrogen sulfide mean concentration” value is on record as 0 ppb and the Pentanols mean concentration amounted to 90 ppb. Also, in the experiment on E. coli [4] (setting [8]), the Acetaldehyde mean concentration is recorded as 3300 ppb, the “Acetic acid mean concentration” value is 1950 ppb, the Aminoacetophenone mean concentration is listed as 900 ppb and the DMDS mean concentration stood at 380 ppb. In the experiment on E. coli [4] (setting [8]), the DMS mean concentration stood at 30 ppb, the Ethanol mean concentration turned out to be 42000 ppb, the Formaldehyde mean concentration turned out to be 140 ppb and the “Hydrogen sulfide mean concentration” value came to 1030 ppb. Also, in the experiment with E. coli [4] (setting [8]), the Indole mean concentration is on record as 210 ppb, the Methanethiol mean concentration is 1400 ppb, the Pentanols mean concentration was 220 ppb and the Propanol mean concentration is recorded as 5800 ppb. In the experiment on E. coli [4] (setting [9]), the Acetaldehyde mean concentration was 2700 ppb, the “Acetic acid mean concentration” value is on record as 600 ppb, the Aminoacetophenone mean concentration stood at 280 ppb and the DMDS mean concentration is 190 ppb. Besides, in the experiment with E. coli [4] (setting [9]), the DMS mean concentration stood at 30 ppb, the Ethanol mean concentration is given as 16000 ppb, the Formaldehyde mean concentration worked out at 110 ppb and the “Hydrogen sulfide mean concentration” value is listed as 6 ppb. Moreover, in the experiment on E. coli [4] (setting [9]), the Indole mean concentration worked out at 110 ppb, the Methanethiol mean concentration is reported as 150 ppb, the Pentanols mean concentration was determined as 90 ppb and the Propanol mean concentration was found to be 1700 ppb. Moreover, the “Effect on production of all headspace VCs (except formaldehyde)” value in the experiment on E. coli [4] (E. coli 22 hours, gentamicin above its MIC, p<0.005) is listed as “significantly inhibited”. Moreover, the “Effect on most analytes (except hydrogen sulfide and methanethiol)” value in the experiment with E. coli [4] (E. coli 22 hours, gentamicin below its MIC, p<0.01) is on record as “Significant (p<0.01) reductions”. Further, the “Effect on production of hydrogen sulfide by E. coli” value in the experiment with E. coli [4] (six hours, both gentamicin concentrations) is reported as “eliminated”.
